One data set concerns the target T1, MSA (Homo sapiens, UniProt P02768).
T1 construct: purchased Green Cross Corp., Korea
Briefly: TLC measurement of pigment not coupled to MSA. Type of data set: binding. As to the method: 2 ml of 200 mg/mL MSA was added thereto to prepare the reaction mixture in total volume of 3 mL. […]
Upon completion of the reaction, the amount of the pigment not coupled to MSA was measured by performing thin layer chromatography (TLC) with the pigment-coupled MSA hourly. At this time, methanol and methylene chloride (MeOH:MeCl2) mixture was used as a solvent and the results were quantitatively analyzed by multi-gauge 3.0 software using LAS3000 (Fuji Film).

A short description of data set [1]: Absorption peak and molecular extinction coefficient of pigment-coupled MSA. Conditions: for Wavelength (absorption peak): scan 350 nm to 850 nm. It counts as physicochemical. Here is the method:
The pigment-coupled MSA solution was loaded in a 96-well plate, which was scanned with visible light ranging between 350 nm and 850 nm to measure the absorbance at the peak of absorption spectrum using Varioskan Flash (Thermo Fisher Scientific Inc., Finland) spectrometer. The molecular extinction coefficient was measured by calculating the absorbance per 1 cm length according to Beer-Lambert law.

T1 sequence (P02768 25-609): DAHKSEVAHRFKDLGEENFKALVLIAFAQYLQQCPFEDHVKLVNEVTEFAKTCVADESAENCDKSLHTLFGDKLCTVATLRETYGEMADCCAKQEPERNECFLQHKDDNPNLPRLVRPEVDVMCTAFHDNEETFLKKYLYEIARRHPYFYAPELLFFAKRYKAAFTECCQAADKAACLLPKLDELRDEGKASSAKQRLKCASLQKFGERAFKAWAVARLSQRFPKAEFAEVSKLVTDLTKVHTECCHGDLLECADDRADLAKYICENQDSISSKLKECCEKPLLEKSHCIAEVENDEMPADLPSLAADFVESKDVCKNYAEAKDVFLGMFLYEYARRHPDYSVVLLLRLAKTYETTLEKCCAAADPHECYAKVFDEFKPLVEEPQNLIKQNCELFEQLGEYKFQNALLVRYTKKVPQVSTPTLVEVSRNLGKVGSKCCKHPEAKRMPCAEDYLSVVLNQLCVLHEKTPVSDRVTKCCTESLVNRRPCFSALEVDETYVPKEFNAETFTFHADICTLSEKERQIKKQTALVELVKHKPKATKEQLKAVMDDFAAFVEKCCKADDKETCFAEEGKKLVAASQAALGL

On to nitrazine yellow [NY], for which the “Percentage of pigment not coupled to MSA” value was found to be 9.6 ± 0.5% on MSA (10 min); 8.4 ± 0.5% on MSA (30 min); 7.2 ± 0.4% at MSA (1 hr); 6.4 ± 0.4% on MSA (2 hr); 0.4 ± 0.6% on MSA (6 hr); 0.1 ± 0.2% at MSA (24 hr). In addition, the “Wavelength (absorption peak)” value in data set [1] is 560 nm.

As to brilliant blue R, the “Percentage of pigment not coupled to MSA” value is on record as 7.8 ± 0.5% at MSA (10 min); 7.6 ± 0.8% on MSA (30 min); 7.7 ± 0.9% at MSA (1 hr); 6.3 ± 0.5% on MSA (2 hr); 5.9 ± 0.6% on MSA (6 hr); 3.8 ± 0.6% at MSA (24 hr).

Regarding `Nc1c(N=Nc2ccc([N+](=O)[O-])cc2)c(S(=O)(=O)[O-])cc2cc(S(=O)(=O)[O-])c(N=Nc3ccccc3)c(O)c12.[Na+].[Na+]` [NBB, naphthol blue black], the “Percentage of pigment not coupled to MSA” value worked out at 0.0 ± 0.0% at MSA (10 min); 0.0 ± 0.0% on MSA (30 min); 0.0 ± 0.0% on MSA (1 hr); 0.0 ± 0.0% on MSA (2 hr); 0.2 ± 0.3% at MSA (6 hr); 0.0 ± 0.0% on MSA (24 hr). The “Binding of pigment to MSA (in words)” value on MSA (Table 2) is “bind stably and strongly to MSA and high”; at MSA (Table 2, listed as naphthol blue black), “stably bound”. Besides, the “ε (molecular extinction coefficient)” value in data set [1] (at absorption peak, per 1 cm, Beer-Lambert law) is recorded as 62222. Moreover, the “Wavelength (absorption peak)” value in data set [1] was 620 nm.

For the origin of these results see US20200009275A1, “PIGMENT-COUPLED MANNOSYL SERUM ALBUMIN COMPLEX AND LYMPH NODE-PROBING COMPOSITION COMPRISING SAME” (priority 2017, published 2020).
